#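 Compound exposure: 48 hours, 5 concentrations, 96-well plates. The concentration for full growth arrest is given as TGI.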
# Columns and labels:
# Test in all cases: DTP human tumour cell line panel, 48 h
# [1] = tested on: OVCAR-8 ovarian
# [2] = tested on: A549 NSCLC
# [3] = tested on: CCRF-CEM leukemia
# [4] = tested on: NCI/ADR-RES ovarian
# [5] = tested on: TK-10 renal
# [6] = tested on: SF-268 CNS
# [7] = tested on: OVCAR-3 ovarian
# [8] = tested on: EKVX NSCLC
# [9] = tested on: BT-549 breast
# [10] = tested on: KM12 colon
# [11] = tested on: MCF7 breast
# [12] = tested on: RXF 393 renal
# [13] = tested on: CAKI-1 renal
# [14] = tested on: HCT-15 colon
# [15] = tested on: DU-145 prostate
# [16] = tested on: HCC-2998 colon
# [17] = tested on: 786-0 renal
# [18] = tested on: U251 CNS
# [19] = tested on: MDA-MB-231 breast
# [20] = tested on: LOX IMVI melanoma
# [21] = tested on: MOLT-4 leukemia
# [22] = tested on: UACC-257 melanoma
# [23] = tested on: IGROV1 ovarian
# [24] = tested on: SW-620 colon
# [25] = tested on: HOP-62 NSCLC
# [26] = tested on: OVCAR-4 ovarian
# [27] = tested on: NCI-H522 lung
# [28] = tested on: ACHN renal
# [29] = tested on: HOP-92 NSCLC
# [30] = tested on: SNB-75 CNS
# [31] = tested on: HS 578T breast
# [32] = tested on: SK-MEL-28 melanoma
# [33] = tested on: NCI-H226 lung
# [34] = tested on: SNB-19 CNS
# [35] = tested on: RPMI-8226 leukemia
# [36] = tested on: UO-31 renal
# [37] = tested on: COLO 205 colon
# [38] = tested on: HCT-116 colon
# [39] = tested on: SN12C renal
# [40] = tested on: SR leukemia
# [41] = tested on: MDA-MB-435
# [42] = tested on: HL-60(TB) leukemia
# [43] = tested on: SK-MEL-5 melanoma
# [44] = tested on: SF-295 CNS
# [45] = tested on: NCI-H23 lung
# [46] = tested on: PC-3 prostate
# [47] = tested on: OVCAR-5 ovarian
# [48] = tested on: K-562 leukemia
# [49] = tested on: A498 renal
# [50] = tested on: NCI-H460 lung
# [51] = tested on: SF-539 CNS
# [52] = tested on: MALME-3M melanoma
# [53] = tested on: HT29 colon
# [54] = tested on: M14 melanoma
# [55] = tested on: SK-OV-3 ovarian
# [56] = tested on: UACC-62 melanoma
# [57] = tested on: T-47D breast
# [58] = tested on: SK-MEL-2 melanoma
compound,measurement,setting,value
COC1(OC)CC(CO)(CNc2nc(N)nc(Cl)c2C=O)C1,TGI,[1],> 100 µM
same,TGI,[2],> 100 µM
same,TGI,[3],> 100 µM
same,TGI,[4],88.1 µM
same,TGI,[5],> 100 µM
same,TGI,[6],> 100 µM
same,TGI,[7],> 100 µM
same,TGI,[8],52.2 µM
same,TGI,[9],> 100 µM
same,TGI,[10],> 100 µM
same,TGI,[11],> 100 µM
same,TGI,[12],> 100 µM
same,TGI,[13],> 100 µM
same,TGI,[14],> 100 µM
same,TGI,[15],> 100 µM
same,TGI,[16],84.5 µM
same,TGI,[17],> 100 µM
same,TGI,[18],> 100 µM
same,TGI,[19],43.9 µM
same,TGI,[20],35.2 µM
same,TGI,[21],60.1 µM
same,TGI,[22],71.6 µM
same,TGI,[23],48.3 µM
same,TGI,[24],> 100 µM
same,TGI,[25],> 100 µM
same,TGI,[26],90.4 µM
same,TGI,[27],3.96 µM
same,TGI,[28],13 µM
same,TGI,[29],36.2 µM
same,TGI,[30],> 100 µM
same,TGI,[31],> 100 µM
same,TGI,[32],> 100 µM
same,TGI,[33],> 100 µM
same,TGI,[34],> 100 µM
same,TGI,[35],> 100 µM
same,TGI,[36],> 100 µM
same,TGI,[37],> 100 µM
same,TGI,[38],> 100 µM
same,TGI,[39],> 100 µM
same,TGI,[40],79.5 µM
same,TGI,[41],85.9 µM
same,TGI,[42],35.8 µM
same,TGI,[43],> 100 µM
same,TGI,[44],> 100 µM
same,TGI,[45],48.5 µM
same,TGI,[46],77.4 µM
same,TGI,[47],> 100 µM
same,TGI,[48],32.1 µM
same,TGI,[49],> 100 µM
same,TGI,[50],> 100 µM
same,TGI,[51],> 100 µM
same,TGI,[52],> 100 µM
same,TGI,[53],> 100 µM
CSC(=NC#N)S/C=C/C(=O)c1ccc(Cl)cc1,TGI,[54],45.1 µM
same,TGI,[1],47.4 µM
same,TGI,[2],> 100 µM
same,TGI,[3],> 100 µM
same,TGI,[4],63.1 µM
same,TGI,[5],58.5 µM
same,TGI,[6],62.2 µM
same,TGI,[7],34.7 µM
same,TGI,[8],> 100 µM
same,TGI,[10],> 100 µM
same,TGI,[11],79.3 µM
same,TGI,[12],42.4 µM
same,TGI,[13],35.6 µM
same,TGI,[14],> 100 µM
same,TGI,[15],> 100 µM
same,TGI,[16],> 100 µM
same,TGI,[17],40.8 µM
same,TGI,[18],> 100 µM
same,TGI,[55],> 100 µM
same,TGI,[21],> 100 µM
same,TGI,[22],52.2 µM
same,TGI,[23],44.2 µM
same,TGI,[24],40.6 µM
same,TGI,[25],> 100 µM
same,TGI,[26],> 100 µM
same,TGI,[27],38.5 µM
same,TGI,[28],> 100 µM
same,TGI,[29],> 100 µM
same,TGI,[30],> 100 µM
same,TGI,[31],75.9 µM
same,TGI,[32],46.5 µM
same,TGI,[34],> 100 µM
same,TGI,[36],45.4 µM
same,TGI,[56],74.4 µM
same,TGI,[37],71.6 µM
same,TGI,[38],34.5 µM
same,TGI,[39],84.7 µM
same,TGI,[40],12.6 µM
same,TGI,[41],64.3 µM
same,TGI,[42],> 100 µM
same,TGI,[43],32.7 µM
same,TGI,[44],95.5 µM
same,TGI,[45],52.4 µM
same,TGI,[46],> 100 µM
same,TGI,[47],99.8 µM
same,TGI,[48],> 100 µM
same,TGI,[50],> 100 µM
same,TGI,[51],52.3 µM
same,TGI,[57],75.1 µM
same,TGI,[58],45 µM
same,TGI,[52],55.5 µM
same,TGI,[53],46.4 µM
